# Measured values reported in patent publication US20150087697A1, “COMPOSITIONS AND METHODS FOR THE TREATMENT OF MUSCLE PAIN” (priority 2012, published 2015).
# Experiment: in vivo
# Conditions: rat, iv, 30 μg/min/kg
smiles,measurement,setting,value
CC/C=C\C/C=C\C/C=C\C/C=C\C/C=C\CCCC(=O)OCCN(CC)CCOC(c1ccccc1)c1ccccc1 [Formula I (compound 1-4)],half-life,"brain (striatum microdialysate, unbound drug)",49.1 ± 7.3 min
same,half-life,"plasma (femoral vein microdialysate, unbound drug)",67.6 ± 1.4 min
